Source: paper PMC9732823, “Discovery of Dual Aβ/Tau Inhibitors and Evaluation of Their Therapeutic Effect on a Drosophila Model of Alzheimer’s Disease” (ACS Chemical Neuroscience, 2022)

How the values were obtained:
PAMPA-BBB assay = conditions: for Papp: pH 7.4; for BBB permeability prediction: PAMPA-BBB
Excerpt: Thus, to reduce attrition in the development process, the evaluation of BBB penetration at a very early drug discovery stage is of crucial importance. In light of this, the ability of the previously selected compounds to cross the BBB was predicted by a parallel artificial membrane permeability assay (PAMPA)-BBB,[41] a high-throughput technique widely used as an indicator of a molecule’s passive diffusion through the BBB. Six commercially available drugs were used to validate the assay.
PAMPA (the parallel artificial membrane permeability assay) is a high-throughput screening tool applicable for the prediction of the passive transport of potential drugs across the BBB.[41] In this study, it has been used as a non-cell-based in vitro assay carried out in a coated 96-well membrane filter. The filter membrane of the donor plate was coated with PBL (Polar Brain Lipid, Avanti) in dodecane (4 μL of 20 mg/mL PBL in dodecane) and the acceptor well was filled with 300 μL of phosphate buffer saline, (PBS pH 7.4; VA). The tested compounds were dissolved first in DMSO and then diluted with PBS pH 7.4 to reach the final concentrations of 50–500 μM in the donor well. […] Then, 300 μL of the donor solution (VD) was added to the donor wells and the donor filter plate was carefully put on the acceptor plate so that the coated membrane was “in touch” with both donor solution and acceptor buffer. In principle, the test compound diffuses from the donor well through the polar brain lipid membrane (area = 0.28 cm^2) to the acceptor well. The concentrations of the tested compound in both donor and the acceptor wells were assessed after 3, 4, 5, and 6 h of incubation in quadruplicate using a UV plate reader, Synergy HT (Biotek) at the maximum absorption wavelength of each compound (n=3). In addition to that, solution of the theoretical compound concentration, simulating the equilibrium state established if the membrane were ideally permeable, was prepared and assessed as well. The concentrations of the compounds in the donor and acceptor wells and the equilibrium concentration were calculated from the standard curve and expressed as the permeability (Pe) according to the equation[41] [drawing 1] where [drawing 2]

Tau protein = target: T1, Tau protein (Homo sapiens, UniProt P10636); assay: Inhibition of Tau aggregation in intact E. coli cells overexpressing Tau (ThS fluorescence); format: cell-based, Escherichia coli; conditions: for % inhibition Tau aggregation @ 10 μM: intact E. coli cells, compound 10 μM, mean ± SEM of four independent experiments; for inhibition at 10 µM: read-out: % inhibition Tau aggregation @ 10 μM, intact E. coli cells, compound 10 μM, mean ± SEM of four independent experiments
T1 construct: expressed in transfected cells; host or cells: Escherichia coli BL21 (DE3) with pTARA and pRKT42
T1 sequence (P10636 1-441 isoform P10636-8): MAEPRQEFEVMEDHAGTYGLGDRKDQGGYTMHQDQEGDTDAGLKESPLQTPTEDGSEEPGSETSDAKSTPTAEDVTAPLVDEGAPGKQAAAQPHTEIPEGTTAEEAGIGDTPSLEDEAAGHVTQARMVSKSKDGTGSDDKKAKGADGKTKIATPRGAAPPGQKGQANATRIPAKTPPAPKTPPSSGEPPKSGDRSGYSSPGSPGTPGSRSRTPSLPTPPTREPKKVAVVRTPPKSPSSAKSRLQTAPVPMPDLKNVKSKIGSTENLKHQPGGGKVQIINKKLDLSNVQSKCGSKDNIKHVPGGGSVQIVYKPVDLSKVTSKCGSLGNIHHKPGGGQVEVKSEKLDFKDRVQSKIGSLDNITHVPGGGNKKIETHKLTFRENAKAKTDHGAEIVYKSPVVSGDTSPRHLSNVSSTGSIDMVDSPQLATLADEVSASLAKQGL
Excerpt: (§1) As it would have been labor-intensive and expensive to screen such a number of compounds in two separate antiaggregating studies using recombinant Aβ and Tau, we turned our attention to a simple model of protein aggregation, namely, the intact Escherichia coli (E. coli) cells overexpressing Aβ42 and Tau proteins.[28],[29] Building on the fact that inclusion bodies produced by overexpression of these proteins in E. coli mainly consist of fibrillar aggregates, this simple screening method uses bacteria as an in vivo reservoir for tracking the inhibition of amyloid-type protein aggregation in real time, using the amyloid dye thioflavin S (ThS). Of note, this screening has already been used for the evaluation of libraries of antiaggregating compounds.[28]−[38]
E. coli BL21 (DE3) competent cells were transformed with pTARA containing the RNA-polymerase gen of the T7 phage (T7RP) under the control of the promoter PBAD. E. coli BL21 (DE3) with pTARA competent cells were transformed with the pRKT42 vector encoding four repeats of Tau protein in two inserts. For overnight culture preparation, 10 mL of M9 medium containing 0.5% of glucose, 100 μg·mL^–1 ampicillin, and 12.5 μg·mL^–1 chloramphenicol were inoculated with a colony of BL21 (DE3) bearing the plasmids to be expressed at 37 °C. For expression of Tau protein, the required volume of overnight culture to obtain 1:500 dilution was added to fresh M9 minimal medium containing 0.5% of glucose, 50 μg·mL^–1 ampicillin, 12.5 μg·mL^–1 chloramphenicol, and 25 μM ThS. The bacterial culture was grown at 37 °C and 250 rpm. When the cell density reached ABS600 nm= 0.6, an amount of 980 μL of culture was transferred into Eppendorf tubes of 1.5 mL with 10 μL of each compound to be tested in DMSO and 10 μL of arabinose at 25%. The final concentration of the drug was fixed at 10 μM. The samples were grown overnight at 37 °C and 1400 rpm using a thermomixer (Eppendorf, Hamburg, Germany). As the control of maximal amyloid presence, the same amount of DMSO without the drug was added to the sample. In parallel, noninduced samples (in the absence of arabinose) were also prepared and used as controls for the amyloid absence. In addition, the absorbance at 600 nm of the samples was checked to assess the potential intrinsic toxicity of the compounds and to confirm the correct bacterial growth.
(§2) ThS (T1892) and other chemical reagents were purchased from Sigma (St. Louis, MO). ThS stock solution (25 mM) was prepared in double-distilled water purified through a Milli-Q system (Millipore). For the fluorescence assay, the ThS spectra were measured on an AMINCO-Bowman series 2 luminescence spectrophotometer (Aminco-Bowman AB2, SLM Aminco, Rochester, NY) from 460 to 600 nm at 25 °C using an excitation wavelength of 440 nm and slit widths of 4 nm. The emission at 485 nm (fluorescence peak of ThS in the presence of amyloids) was recorded. To normalize the ThS fluorescence as a function of the bacterial concentration, ABS600nm was obtained using a Shimadzu UV-2401 PC UV–Vis spectrophotometer (Shimadzu, Japan). Note that the fluorescence normalization was carried out considering as 100% the ThS fluorescence of the bacterial cells expressing the peptide or protein in the absence of the drug and 0% the ThS fluorescence of the bacterial cells nonexpressing the peptide or protein.

Aβ42 = target: T2, Aβ42 (Homo sapiens, UniProt P05067); assay: Inhibition of Aβ42 aggregation in intact E. coli cells overexpressing Aβ42 (ThS fluorescence); format: cell-based, Escherichia coli; conditions: for % inhibition Aβ42 aggregation @ 10 μM: intact E. coli cells, compound 10 μM, mean ± SEM of four independent experiments; for inhibition at 10 µM: read-out: % inhibition Aβ42 aggregation @ 10 μM, intact E. coli cells, compound 10 μM, mean ± SEM of four independent experiments
T2 construct: expressed in transfected cells; host or cells: Escherichia coli BL21 (DE3), pET28a
T2 sequence (P05067 672-713 limits assumed): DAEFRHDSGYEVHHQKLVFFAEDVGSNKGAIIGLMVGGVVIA
Excerpt: as §1
Escherichia coli competent cells BL21 (DE3) were transformed with the pET28a vector (Novagen, Inc., Madison, WI) carrying the DNA sequence of Aβ42. Because of the addition of the initiation codon ATG in front of both genes, the overexpressed peptide contains an additional methionine residue at its N terminus. For overnight culture preparation, an amount of 10 mL of M9 minimal medium containing 50 μg·mL^–1 kanamycin was inoculated with a colony of BL21 (DE3) bearing the plasmid to be expressed at 37 °C. For expression of the Aβ42 peptide, the required volume of overnight culture to obtain 1:500 dilution was added into fresh M9 minimal medium containing 50 μg·mL^–1 kanamycin and 250 μM ThS. The bacterial culture was grown at 37 °C and 250 rpm. When the cell density reached ABS600 nm = 0.6, an amount of 980 μL of culture was transferred into Eppendorf tubes of 1.5 mL with 10 μL of each compound to be tested in DMSO and 10 μL of isopropyl 1-thio-β-D-galactopyranoside (IPTG) at 100 mM. The final concentration of the drug was fixed at 10 μM. The samples were grown overnight at 37 °C and 1400 rpm using a thermomixer (Eppendorf, Hamburg, Germany). As the control of the amyloid presence (maximal amyloid presence), the same amount of DMSO without the drug was added to the sample. In parallel, noninduced samples (in the absence of IPTG) were also prepared and used as controls of the non-amyloid presence. In addition, the absorbance at 600 nm of the samples was checked to assess the potential intrinsic toxicity of the compounds and to confirm the correct bacterial growth.
as §2

[1] = tested on: cerebellar granule neurons (CGNs); assay: Neurotoxicity on primary cultures of cerebellar granule neurons (nuclei counting after Hoechst staining); conditions: differentiated CGNs, 24 h, percentage of healthy nuclei on total nuclei, mean ± SEM of three experiments
[2] = Compound stability in the PAMPA buffer solution; format: in vitro ADME; conditions: after 6h, donor and acceptor wells
Excerpt: Table S1. Prediction of BBB penetration of the studied compounds expressed as Pe ± SEM (n=3)

[3] = PAMPA-BBB penetration estimation

Row | Structure (SMILES) | CNS (+/-) (PAMPA-BBB assay; [3]) | % inhibition Tau aggregation @ 10 μM (Tau protein) | inhibition at 10 µM (Tau protein) | % inhibition Aβ42 aggregation @ 10 μM (Aβ42) | inhibition at 10 µM (Aβ42) | % survival neurotoxicity @ 10 μM [1] | Papp (PAMPA-BBB assay; PAMPA) | BBB permeability prediction (PAMPA-BBB assay) | degradation in the PAMPA buffer solution [2] | CNS (+/-) (PAMPA-BBB assay; PAMPA)
1 | CO/N=C(\C(=O)N[C@@H]1C(=O)N2C(C(=O)O)=C(COC(N)=O)CS[C@H]12)c1ccco1 [Cefuroxime, reference compound] | CNS - (CNS - (low BBB permeation predicted): Pe (×10-6 cm s-1) < 2.0) |  |  |  |  |  |  |  |  | 
2 | CCOC(=O)CN1C(=O)S/C(=C\c2ccc(/C=C3\SC(=O)N(CC(=O)OCC)C3=O)cc2)C1=O [Compound 7, Diethyl 2,2′-((5Z,5′Z)-(1,4-phenylenebis(methanylylidene))bis(2,4-dioxothiazolidin-3-yl-5-ylidene))diacetate] | CNS + (CNS + (high BBB permeation predicted): Pe (×10-6 cm s-1) > 4.0) | 30.6 ± 3.6% | 30% | 40.7 ± 4.4% | 40% | 90.1 ± 2.1% | 11.4 ± 0.49 ×10⁻⁶ cm/s | predicted to passively diffuse across the BBB | < 20% | 
3 | CCOC(=O)CN1C(=O)S/C(=C\c2ccc3[nH]c4ccc(/C=C5\SC(=O)N(CC(=O)OCC)C5=O)cc4c3c2)C1=O [Compound 10, Diethyl 2,2′-((5Z,5′Z)-((9H-carbazole-3,6-diyl)bis(methanylylidene))bis(2,4-dioxothiazolidin-3-yl-5-ylidene))diacetate] | CNS + (CNS + (high BBB permeation predicted): Pe (×10-6 cm s-1) > 4.0) | 37.7 ± 4.1% | 30 to 40% | 31.9 ± 3.0% | 30 to 40% | 84.2 ± 6.3% | 5.79 ± 1.16 ×10⁻⁶ cm/s | predicted to passively diffuse across the BBB | < 20% | 
4 | O=C(O)CN1C(=O)S/C(=C\c2ccc3[nH]c4ccc(/C=C5\SC(=O)N(CC(=O)O)C5=O)cc4c3c2)C1=O [Compound 16, 2,2′-((5Z,5′Z)-((9H^–Carbazole-3,6-diyl)bis(methanylylidene))bis(2,4-dioxothiazolidin-3-yl-5-ylidene))diacetic acid] |  | 37.9 ± 3.5% | 30 to 40% | 32.1 ± 3.1% | 30 to 40% | 90.0 ± 2.8% | 0.55 ± 0.12 ×10⁻⁶ cm/s |  |  | 
5 | CC1(C)c2cc(/C=C3\SC(=O)N(CC(=O)O)C3=O)ccc2-c2ccc(/C=C3\SC(=O)N(CC(=O)O)C3=O)cc21 [Compound 17, 2,2′-((5Z,5′Z)-((9,9-Dimethyl-9H-fluorene-2,7-diyl)bis(methanylylidene))bis(2,4-dioxothiazolidin-3-yl-5-ylidene))diacetic acid] |  |  | > 50% |  | > 50% | 89.3 ± 2.3% | 0.88 ± 0.2 ×10⁻⁶ cm/s |  |  | 
6 | CN(C)CCN1C(=O)S/C(=C\c2ccc(/C=C3\SC(=O)N(CCN(C)C)C3=O)cc2)C1=O [Compound 19, (5Z,5′Z)-5,5′-(1,4-Phenylenebis(methanylylidene))bis(3-(2-(dimethylamino)ethyl)thiazolidine-2,4-dione)] |  |  | 19.4 ± 3.6% |  | 8.1 ± 4.4% | 89.4 ± 2.0% |  |  |  | 
7 | CN(C)CCN1C(=O)S/C(=C\c2ccc(-c3ccc(/C=C4\SC(=O)N(CCN(C)C)C4=O)cc3)cc2)C1=O [Compound 20, (5Z,5′Z)-5,5′-([1,1′-Biphenyl]-4,4′-diylbis(methanylylidene))bis(3-(2-(dimethylamino)ethyl)thiazolidine-2,4-dione)] |  |  | 34.9 ± 1.9% |  | 26.4 ± 4.2% | 91.1 ± 0.9% |  |  |  | 
8 | CN(C)CCN1C(=O)S/C(=C\c2ccc(Cc3ccc(/C=C4\SC(=O)N(CCN(C)C)C4=O)cc3)cc2)C1=O [Compound 21, (5Z,5′Z)-5,5′-((Methylenebis(4,1-phenylene))bis(methanylylidene))bis(3-(2-(dimethylamino)ethyl)thiazolidine-2,4-dione)] |  |  | 38.7 ± 3.3% |  | 16.1 ± 3.8% | 91.1 ± 1.5% |  |  |  | 
9 | CN(C)CCN1C(=O)S/C(=C\c2ccc(-c3ccc(/C=C4\SC(=O)N(CCN(C)C)C4=O)s3)s2)C1=O [Compound 24, (5Z,5′Z)-5,5′-([2,2′-Bithiophene]-5,5′-diylbis(methanylylidene))bis(3-(2-(dimethylamino)ethyl)thiazolidine-2,4-dione)] |  |  | 17.3 ± 4.5% |  | 20.3 ± 4.8% | 88.8 ± 2.3% |  |  |  | 
10 | CCN(C)C(=O)Oc1cccc([C@H](C)N(C)C)c1 [Rivastigmine, reference compound] |  |  |  |  |  |  |  |  |  | CNS + (key: CNS + (high BBB permeation predicted): Pe (×10-6 cm s-1) > 4.0; CNS - (low BBB permeation predicted): Pe (×10-6 cm s-1) < 2.0; CNS +/- (uncertain BBB permeation): Pe (×10-6 cm s-1) from 4.0 to 2.0)
